In patent publication US7960406B2, “Diketo substituted pyrrolo[2,3-c] pyridines” (priority 2008, dated 2011) one finds EC50 data, which are given here for 45 compounds.

In the test the test system is HIV-1 single-round infectious reporter virus. Nature of the test: Single-round infectious HIV-1 luciferase reporter virus infection of HeLa CD4 cells. It is filed as cell-based. The conditions noted are these: Human immunodeficiency virus 1, HeLa, 72 h. As for the experimental part:
• Virus production—Human embryonic Kidney cell line, 293T, was propagated in Dulbecco's Modified Eagle Medium (Invitrogen, Carlsbad, Calif.) containing 10% fetal Bovine serum (FBS, Sigma, St. Louis, Mo.). • Virus infection—Human epithelial cell line, HeLa, expressing the HIV-1 receptor CD4 was propagated in Dulbecco's Modified Eagle Medium (Invitrogen, Carlsbad, Calif.) containing 10% fetal Bovine serum (FBS, Sigma, St. Louis, Mo.) and supplemented with 0.2 mg/mL GENETICIN® (Invitrogen, Carlsbad, Calif.). • Virus—Single-round infectious reporter virus was produced by co-transfecting human embryonic Kidney 293 cells with an HIV-1 envelope DNA expression vector and a proviral cDNA containing an envelope deletion mutation and the luciferase reporter gene inserted in place of HIV-1 nef sequences (Chen et al., Ref. 41). Transfections were performed using Lipofectamine Plus reagent as described by the manufacturer (Invitrogen, Carlsbad, Calif.). Experimental Procedure:
1. HeLa CD4 cells were plated in 96 well plates at a cell density of 1×10^4 cells per well in 100 μl Dulbecco's Modified Eagle Medium containing 10% fetal Bovine serum and incubated overnight.
2. Compound was added in a 2 μl dimethylsulfoxide solution, so that the final assay concentration would be ≦10 μM.
3. 100 μl of single-round infectious reporter virus in Dulbecco's Modified Eagle Medium was then added to the plated cells and compound at an approximate multiplicity of infection (MOI) of 0.01, resulting in a final volume of 200 μl per well.
4. Virally-infected cells were incubated at 37° C., in a CO2 incubator, and harvested 72 h after infection.
5. Viral infection was monitored by measuring luciferase expression from viral DNA in the infected cells using a luciferase reporter gene assay kit, as described by the manufacturer (Roche Molecular Biochemicals, Indianapolis, Ind.). Infected cell supernatants were removed and 50 μl of lysis buffer was added per well. After 15 minutes, 50 μl of freshly-reconstituted luciferase assay reagent was added per well. Luciferase activity was then quantified by measuring luminescence using a Wallac MICROBETA® scintillation counter.
6. The percent inhibition for each compound was calculated by quantifying the level of luciferase expression in cells infected in the presence of each compound as a percentage of that observed for cells infected in the absence of compound and subtracting such a determined value from 100.
7. An EC50 provides a method for comparing the antiviral potency of the compounds of this disclosure. The effective concentration for fifty percent inhibition (EC50) was calculated with the Microsoft Excel Xlfit curve fitting software. For each compound, curves were generated from percent inhibition calculated at 10 different concentrations by using a four parameter logistic model (model 205). Table 1 is the key for the data in Table 2.
In general terms: In a reporter assay the amount or activity of a reporter protein is the signal.

[1] abbreviates: read-out: EC50 Group from Table 1.

Read-outs that look alike come from different tables or passages of the source. Where only a bound is given, the exact number is not on record here.

For `COc1cnc(-n2cnc(C)n2)c2[nH]cc(C(=O)C(=O)N3CCn4c(nnc4-c4ccccc4F)C3)c12` [Compound C2], the EC50 (commonly the concentration at which the effect is half-maximal) is 0.29 nM.
In the case of `COc1ccccc1-c1nnc2n1CCN(C(=O)C(=O)c1c[nH]c3c(-n4cnc(C)n4)ncc(OC)c13)C2` [Compound C5], under setting [1], the EC50 was under 500 nM.
The compound `COc1cnc(-n2cnc(C)n2)c2[nH]cc(C(=O)C(=O)N3CCn4c(nnc4-c4ccccc4C(N)=O)C3)c12` [Compound C4] registered an EC50 of over 500 nM.
As to `COc1cnc(-n2cnc(C)n2)c2[nH]cc(C(=O)C(=O)N3CCc4c(cnn4-c4ccccn4)C3)c12` [Compound L4], the EC50 under setting [1] is under 500 nM.
For the compound `COc1cnc(-c2cncnc2)c2[nH]cc(C(=O)C(=O)N3CCn4c(-c5ccccc5)cnc4C3)c12` [Compound D3], the EC50 under setting [1] is under 500 nM.
`COc1cnc(-n2ccnn2)c2[nH]cc(C(=O)C(=O)N3CCn4c(nnc4-c4ccccc4)C3)c12` [Compound B2]: the EC50 under setting [1] was under 500 nM.
In the case of `COc1cnc(-n2cnc(C)n2)c2[nH]cc(C(=O)C(=O)N3CCn4c(nc(Cl)c4-c4ccccc4)C3)c12` [Compound G1], the concentration for a half-maximal effect (EC50) under setting [1] is under 500 nM.
Turning to `COc1cnc(-n2cnc(C)n2)c2[nH]cc(C(=O)C(=O)N3CCn4c(-c5cccc(O)c5)cnc4C3)c12` [Compound F1], the EC50 under setting [1] is under 500 nM.
Consider `COc1cnc(-n2cnc(C)n2)c2[nH]cc(C(=O)C(=O)N3CCc4c(cnn4-c4cnccn4)C3)c12` [Compound L5], for which the EC50 under setting [1] was under 500 nM.
As for `O=C(C(=O)N1CCN2C(c3ccccc3)=NCC2C1)c1c[nH]c2c(-n3ccnn3)ncc(F)c12` (stereo not drawn) [Compound O1], the EC50 was determined as 13 nM.
For `COc1cnc(-n2cnc(C)n2)c2[nH]cc(C(=O)C(=O)N3CCn4c(-c5ccccn5)cnc4C3)c12` [Compound E1], the EC50 under setting [1] was under 500 nM.
Turning to `COc1cnc(-n2cnc(C)n2)c2[nH]cc(C(=O)C(=O)N3CCn4c(nnc4-c4ccccc4C)C3)c12` [Compound C1], it took 11.8 nM to reach a half-maximal effect (EC50).
The compound `COc1cnc(-n2ccnn2)c2[nH]cc(C(=O)C(=O)N3CCn4c(-c5ccccc5)cnc4C3)c12` [Compound D2] showed a concentration giving a half-maximal response (EC50) of 0.05 nM.
Take `COc1cnc(-n2cnc(C)n2)c2[nH]cc(C(=O)C(=O)N3CCn4c(nnc4-c4ccccn4)C3)c12` [Compound C3]: the EC50 under setting [1] was under 500 nM.
As to `COc1cnc(-n2cnc(C)n2)c2[nH]cc(C(=O)C(=O)N3CCn4c(nnc4-c4ccccc4)C3)c12` [Compound B1], the EC50 turned out to be 0.95 nM.
On to `COc1cnc(-n2cnc(C)n2)c2[nH]cc(C(=O)C(=O)N3CCn4c(nc(C)c4-c4ccccn4)C3)c12` [Compound H2], for which a half-maximal response (EC50) required 1 nM.
For the compound `COc1cnc(-n2cnc(C)n2)c2[nH]cc(C(=O)C(=O)N3CCn4c(nc(C(F)(F)F)c4-c4ccccc4)C3)c12` [Compound I1], under setting [1], the EC50 was under 500 nM.
As to `COc1cnc(-n2cnc(C)n2)c2[nH]cc(C(=O)C(=O)N3CCn4c(-c5cccnc5)cnc4C3)c12` [Compound F2], the EC50 under setting [1] was under 500 nM.
In the case of `COc1cnc(-n2cnc(C)n2)c2[nH]cc(C(=O)C(=O)N3CCn4c(cnc4-c4ccccc4)C3)c12` [Compound N1], the EC50 stood at 0.06 nM.
`COc1cnc(-n2cnc(C)n2)c2[nH]cc(C(=O)C(=O)N3CCc4c(cnn4-c4ccccc4)C3)c12` [Compound L3] yielded an EC50 of 0.03 nM.
As to `COc1cnc(-c2cc(C(C)(C)O)[nH]n2)c2[nH]cc(C(=O)C(=O)N3CCn4c(-c5ccccc5)cnc4C3)c12` [Compound J2], the EC50 under setting [1] was under 500 nM.
The compound `COc1cnc(-c2cc(CO)[nH]n2)c2[nH]cc(C(=O)C(=O)N3CCn4c(-c5ccccc5)cnc4C3)c12` [Compound J1] returned an EC50 of 0.05 nM.
With `COc1nc2n(c1-c1ccccn1)CCN(C(=O)C(=O)c1c[nH]c3c(-n4cnc(C)n4)ncc(OC)c13)C2` [Compound H1b], under setting [1], the EC50 was under 500 nM.
`COc1nc2n(c1-c1ccccc1)CCN(C(=O)C(=O)c1c[nH]c3c(-n4cnc(C)n4)ncc(OC)c13)C2` [Compound H1a]: under setting [1], the EC50 was under 500 nM.
On to `COc1cnc(-n2cnc(C)n2)c2[nH]cc(C(=O)C(=O)N3CCn4c(nnc4-c4cccc(C)c4)C3)c12` [Compound C8], for which the EC50 under setting [1] is under 500 nM.
As to `COc1cnc(-n2cnc(C)n2)c2[nH]cc(C(=O)C(=O)N3CCn4c(nc(C(F)(F)F)c4-c4ccccn4)C3)c12` [Compound I3], the EC50 turned out to be 0.59 nM.
In the case of `COc1cnc(-n2cnc(C)n2)c2[nH]cc(C(=O)C(=O)N3CCn4c(nnc4-c4ccccc4Cl)C3)c12` [Compound C6], the EC50 under setting [1] is under 500 nM.
With `COc1cnc(-n2cnc(C)n2)c2[nH]cc(C(=O)C(=O)N3CCc4c(ncn4-c4ccccc4)C3)c12` [Compound M1], the EC50 was determined as 0.07 nM.
Regarding `COc1cnc(-n2cnc(C)n2)c2[nH]cc(C(=O)C(=O)N3CCc4c(cnn4-c4cc(C)nc(C)n4)C3)c12` [Compound L2], the EC50 amounted to 331 nM.
Consider `O=C(C(=O)N1CCn2c(nc(C(F)(F)F)c2-c2ccccc2)C1)c1c[nH]c2c(-n3ccnn3)ncc(F)c12` [Compound I2], for which the EC50 under setting [1] is under 500 nM.
Same read-out and setting: under `COc1cnc(-n2cnc(C)n2)c2[nH]cc(C(=O)C(=O)N3CCn4c(nc(Br)c4-c4ccccc4)C3)c12` [Compound G2] stands under 500 nM; under `COc1cnc(-n2cnc(C)n2)c2[nH]cc(C(=O)C(=O)N3CCn4c(-c5ccccc5)cnc4C3)c12` [Compound D1], under 500 nM.
On to `COc1cnc(-n2cnc(C)n2)c2[nH]cc(C(=O)C(=O)N3CCn4c(nnc4-c4ccccc4O)C3)c12` [Compound C7], for which it took 1.91 nM to reach a half-maximal effect (EC50).
Consider `COc1cnc(-n2cnc(C)n2)c2[nH]cc(C(=O)C(=O)N3CCn4c(-c5ccc(O)cc5)cnc4C3)c12` [Compound F3], for which, under setting [1], the EC50 is under 500 nM.
Take `COc1cnc(-n2cnc(C)n2)c2[nH]cc(C(=O)C(=O)N3CCc4c(c(-c5ccccc5)nn4-c4ccccc4)C3)c12` [Compound K1]: the EC50 was 2.6 nM.
For `O=C(C(=O)N1CCn2c(nnc2-c2ccccc2)C1)c1c[nH]c2c(-n3ccnn3)ncc(F)c12` [Compound B3], the concentration giving a half-maximal response (EC50) under setting [1] is under 500 nM.
Turning to `COCc1ncn(-c2ncc(OC)c3c(C(=O)C(=O)N4CCn5c(nnc5-c5ccccc5)C4)c[nH]c23)n1` [Compound B4], the EC50 under setting [1] is under 500 nM.
In turn, `O=C(C(=O)N1CCn2c(nnc2-c2ccccc2)C1)c1c[nH]c2cccc(F)c12` [Compound A1] had an EC50 of 217 nM.
As to `COc1cnc(-n2cnc(C)n2)c2[nH]cc(C(=O)C(=O)N3CCN4C(c5ccccn5)=NCC4C3)c12` (stereo not drawn) [Compound O2], the EC50 under setting [1] was under 500 nM.
As to `COc1ccc(-c2cnc3n2CCN(C(=O)C(=O)c2c[nH]c4c(-n5cnc(C)n5)ncc(OC)c24)C3)cn1` [Compound F4], the EC50 under setting [1] was under 500 nM.
`COc1cnc(-n2cnc(C)n2)c2[nH]cc(C(=O)C(=O)N3CCn4c(-c5ccncc5)cnc4C3)c12` [Compound F6] displayed a half-maximal effective concentration (EC50) of 13.6 nM.
As for `COc1cnc(-n2cnc(C)n2)c2[nH]cc(C(=O)C(=O)N3CCc4c(ncn4-c4ccccn4)C3)c12` [Compound M2], under setting [1], the EC50 is under 500 nM.
The same measure, in the same setting: under `COc1cnc(-n2cnc(C)n2)c2[nH]cc(C(=O)C(=O)N3CCc4c(cnn4-c4ncccn4)C3)c12` [Compound L1] stands under 500 nM; under `COc1cnc(-n2cnc(C)n2)c2[nH]cc(C(=O)C(=O)N3CCn4c(cnc4-c4ccc(F)cc4F)C3)c12` [Compound N2], under 500 nM.
Consider `COc1cnc(-n2cnc(C)n2)c2[nH]cc(C(=O)C(=O)N3CCn4c(-c5ccccc5C#N)cnc4C3)c12` [Compound F5], for which the concentration for a half-maximal effect (EC50) was 98.9 nM.
